From patent publication US20260265238A1, “COMPOUNDS AND PHARMACEUTICAL COMPOSITIONS THAT DEGRADE SWI/SNF-RELATED MATRIX-ASSOCIATED ACTIN-DEPENDENT REGULATOR OF CHROMATIN SUBFAMILY A” (Plexium, Inc., priority 2023, published 2026) come the findings set out here.

Assay [1] concerns the target T1, SMARCA2-HiBiT HeLa cells (protein which is expressed from the SMARCA2 gene) (Homo sapiens, UniProt P51531).
T1 construct: protein which is expressed from the SMARCA2 and SMARCA4 genes; host or cells: HeLa (SMARCA2-HiBiT engineered line)
Briefly: SMARCA2 degradation assay (HiBiT-fusion HeLa cell line, 24 h, luminescence). The format is cell-based. The procedure, abridged:
(§1)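 SMARCA2- or SMARCA4-HiBiT HeLa cells seeded overnight at 37° C, then given compound as a 10-point dilution (typically 10 μM to 300 pM) for 24 h at 37° C. Protein level read by HiBiT lytic detection luminescence; DC50 from dose-response curves; degradation also scored at 1 μM.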
A general note: HiBiT is a short tag that completes a luciferase, so light tracks the accessible tagged protein.

Assay [2] addresses T2, SMARCA4-HiBiT HeLa cells (protein which is expressed from the SMARCA4 gene) (Homo sapiens, UniProt P51532).
T2 construct: protein which is expressed from the SMARCA2 and SMARCA4 genes; host or cells: HeLa (SMARCA4-HiBiT engineered line)
Briefly: SMARCA4 degradation assay (HiBiT-fusion HeLa cell line, 24 h, luminescence). It counts as cell-based. The procedure, abridged:
as §1

T1 sequence (P51531 whole entry): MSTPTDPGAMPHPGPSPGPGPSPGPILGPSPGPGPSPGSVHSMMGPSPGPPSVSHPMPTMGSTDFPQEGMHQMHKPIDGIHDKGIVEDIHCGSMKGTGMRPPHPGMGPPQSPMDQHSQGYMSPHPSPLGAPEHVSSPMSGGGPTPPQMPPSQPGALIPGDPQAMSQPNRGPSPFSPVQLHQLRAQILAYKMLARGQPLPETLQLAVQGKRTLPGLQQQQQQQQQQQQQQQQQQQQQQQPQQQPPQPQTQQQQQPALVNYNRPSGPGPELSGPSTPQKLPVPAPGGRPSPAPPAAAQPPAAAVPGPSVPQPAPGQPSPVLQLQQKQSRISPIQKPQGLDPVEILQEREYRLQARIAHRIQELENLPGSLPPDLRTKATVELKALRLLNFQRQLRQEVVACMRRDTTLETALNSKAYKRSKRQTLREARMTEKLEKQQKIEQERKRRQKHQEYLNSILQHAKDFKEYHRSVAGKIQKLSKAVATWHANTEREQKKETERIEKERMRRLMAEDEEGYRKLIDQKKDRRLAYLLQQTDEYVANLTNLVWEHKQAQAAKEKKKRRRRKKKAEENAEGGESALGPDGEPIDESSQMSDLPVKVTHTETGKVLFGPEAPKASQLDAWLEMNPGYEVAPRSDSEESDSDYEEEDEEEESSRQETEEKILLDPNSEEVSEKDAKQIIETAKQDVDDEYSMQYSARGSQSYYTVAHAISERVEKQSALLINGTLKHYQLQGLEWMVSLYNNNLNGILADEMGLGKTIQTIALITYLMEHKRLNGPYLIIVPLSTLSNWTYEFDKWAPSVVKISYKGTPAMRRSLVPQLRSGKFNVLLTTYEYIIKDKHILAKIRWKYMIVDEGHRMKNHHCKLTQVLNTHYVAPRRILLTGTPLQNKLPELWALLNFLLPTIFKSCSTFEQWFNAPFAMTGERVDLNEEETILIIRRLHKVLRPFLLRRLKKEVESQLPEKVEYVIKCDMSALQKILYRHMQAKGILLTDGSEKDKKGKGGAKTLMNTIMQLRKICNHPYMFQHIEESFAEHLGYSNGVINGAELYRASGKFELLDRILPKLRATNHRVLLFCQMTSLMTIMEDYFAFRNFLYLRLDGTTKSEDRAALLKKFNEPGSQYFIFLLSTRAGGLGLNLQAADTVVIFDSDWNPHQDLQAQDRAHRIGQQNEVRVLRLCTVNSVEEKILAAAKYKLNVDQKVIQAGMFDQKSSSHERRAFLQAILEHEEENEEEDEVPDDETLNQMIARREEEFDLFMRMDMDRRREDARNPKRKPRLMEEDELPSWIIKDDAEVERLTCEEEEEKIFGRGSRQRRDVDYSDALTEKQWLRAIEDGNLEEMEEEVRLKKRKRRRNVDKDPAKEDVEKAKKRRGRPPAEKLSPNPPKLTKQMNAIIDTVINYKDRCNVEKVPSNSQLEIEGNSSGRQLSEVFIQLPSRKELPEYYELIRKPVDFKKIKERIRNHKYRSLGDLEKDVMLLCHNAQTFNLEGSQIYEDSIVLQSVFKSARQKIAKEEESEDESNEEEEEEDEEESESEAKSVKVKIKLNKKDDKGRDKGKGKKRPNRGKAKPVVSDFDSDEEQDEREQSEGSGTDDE
T2 sequence (P51532 whole entry): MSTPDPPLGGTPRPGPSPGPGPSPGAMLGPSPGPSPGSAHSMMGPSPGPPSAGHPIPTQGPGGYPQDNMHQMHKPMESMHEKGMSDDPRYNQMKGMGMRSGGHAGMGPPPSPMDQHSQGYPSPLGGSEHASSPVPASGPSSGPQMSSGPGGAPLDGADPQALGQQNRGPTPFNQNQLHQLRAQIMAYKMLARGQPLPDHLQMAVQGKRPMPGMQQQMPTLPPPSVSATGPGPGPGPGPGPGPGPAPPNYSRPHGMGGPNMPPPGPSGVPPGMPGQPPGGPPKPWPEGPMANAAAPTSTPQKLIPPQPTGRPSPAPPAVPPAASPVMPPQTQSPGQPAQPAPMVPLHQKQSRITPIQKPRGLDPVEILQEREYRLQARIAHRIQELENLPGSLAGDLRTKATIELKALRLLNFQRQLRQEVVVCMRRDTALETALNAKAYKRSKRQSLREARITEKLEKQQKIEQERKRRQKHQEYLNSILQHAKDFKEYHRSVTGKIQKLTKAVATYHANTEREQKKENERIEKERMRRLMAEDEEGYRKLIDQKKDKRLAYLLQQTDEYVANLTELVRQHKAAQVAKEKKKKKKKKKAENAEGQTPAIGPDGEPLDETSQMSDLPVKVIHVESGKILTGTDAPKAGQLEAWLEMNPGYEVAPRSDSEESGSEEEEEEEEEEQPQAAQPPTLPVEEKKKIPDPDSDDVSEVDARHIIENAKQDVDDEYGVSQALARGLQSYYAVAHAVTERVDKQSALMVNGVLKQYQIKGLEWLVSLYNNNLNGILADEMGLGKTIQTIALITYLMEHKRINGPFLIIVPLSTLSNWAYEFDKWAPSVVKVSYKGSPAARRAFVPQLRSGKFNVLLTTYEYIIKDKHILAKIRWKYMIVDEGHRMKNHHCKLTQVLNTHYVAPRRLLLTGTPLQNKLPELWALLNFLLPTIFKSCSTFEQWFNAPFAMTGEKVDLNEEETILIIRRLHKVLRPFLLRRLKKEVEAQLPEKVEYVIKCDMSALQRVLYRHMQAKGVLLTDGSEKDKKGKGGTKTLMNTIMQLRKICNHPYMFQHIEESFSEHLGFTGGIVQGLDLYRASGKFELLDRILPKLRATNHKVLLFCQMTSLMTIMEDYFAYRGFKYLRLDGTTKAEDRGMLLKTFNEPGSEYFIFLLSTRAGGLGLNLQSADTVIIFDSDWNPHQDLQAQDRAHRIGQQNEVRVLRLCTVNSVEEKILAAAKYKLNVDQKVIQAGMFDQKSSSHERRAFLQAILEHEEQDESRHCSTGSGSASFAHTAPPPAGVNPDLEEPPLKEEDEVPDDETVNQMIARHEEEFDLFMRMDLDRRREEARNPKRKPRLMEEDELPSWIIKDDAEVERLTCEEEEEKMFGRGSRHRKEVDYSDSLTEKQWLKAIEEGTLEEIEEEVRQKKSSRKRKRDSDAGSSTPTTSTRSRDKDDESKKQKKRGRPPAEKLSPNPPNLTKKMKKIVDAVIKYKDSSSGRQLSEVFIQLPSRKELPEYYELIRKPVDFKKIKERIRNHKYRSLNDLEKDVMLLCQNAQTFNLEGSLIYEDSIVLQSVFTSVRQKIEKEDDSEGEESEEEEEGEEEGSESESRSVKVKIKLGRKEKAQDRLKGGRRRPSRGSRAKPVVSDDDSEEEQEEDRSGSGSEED

`C[C@@H]1CCN(c2cc(-c3ccccc3O)nnc2N)CCN1c1ccnc(C#CCN2[C@@H]3CC[C@H]2C[C@@H](O)C3)n1` [Compound P-261, 8-[3-(4-{(R)-4-[3-amino-6-(o-hydroxyphenyl)-4-pyridazinyl]-7-methyl-1,4-diazepan-1-yl}-2-pyrimidinyl)-2-propynyl]-8-azabicyclo[3.2.1]octan-3-ol]: the DC50 in assay [1] and in assay [2] was 50 to 500 nM in each case. Further, in assay [1] (@ 1 μM), the “SMARCA2 % Degradation @ 1 μM” value is “+++ (+++=>70%)”. In addition, the inhibition at 1 µM in assay [2] (@ 1 μM) fell in the range of 30 to 70%.

On to `C[C@@H]1CCN(c2cc(-c3ccccc3O)nnc2N)CCN1c1ccnc(C#CCn2cncn2)n1` [Compound P-333, 0-{5-[(R)-5-methyl-4-{2-[3-(1H-1,2,4-triazol-1-yl)-1-propynyl]-4-pyrimidinyl}-1,4-diazepan-1-y1]-6-amino-3-pyridazinyl} phenol], for which the half-maximal degradation concentration (DC50) in assay [1] and in assay [2] was 50 to 500 nM each time. Further, the “SMARCA2 % Degradation @ 1 μM” value in assay [1] (@ 1 μM) was “++ (++=30-70%)”. For the same compound, in assay [2] (@ 1 μM), the inhibition at 1 µM was < 30%.

Take `C[C@@H]1CCN(c2cc(-c3ccccc3O)nnc2N)CCN1c1ccnc(C#CCN2CC3CC(C2)O3)n1` [Compound P-179, o-{5-[(R)-5-methyl-4-(2-{3-(6-oxa-3-azabicyclo[3.1.1]hept-3-yl)-1-propynyl}-4-pyrimidinyl)-1,4-diazepan-1-yl]-6-amino-3-pyridazinyl}phenol]: the DC50 in assay [1] and in assay [2] was 50 to 500 nM throughout. Besides, the “SMARCA2 % Degradation @ 1 μM” value in assay [1] (@ 1 μM) is listed as “+++ (+++=>70%)”. For the same compound, the inhibition at 1 µM in assay [2] (@ 1 μM) was in the range of 30 to 70%.

Consider `Nc1nnc(-c2ccccc2O)cc1N1CC2CCC(C1)N2c1ccnc(C#CC2(NC(=O)c3cc4ncccn4n3)CC2)n1` [Compound P-98, N-(1-((4-(3-(3-amino-6-(2-hydroxyphenyl)pyridazin-4-yl)-3,8-diazabicyclo[3.2.1]octan-8-yl)pyrimidin-2-yl)ethynyl)cyclopropyl)pyrazolo[1,5-a]pyrimidine-2-carboxamide], for which the DC50 in assay [1] and in assay [2] was 50 to 500 nM throughout. The “SMARCA2 % Degradation @ 1 μM” value in assay [1] (@ 1 μM) was “++ (++=30-70%)”. Besides, the inhibition at 1 µM in assay [2] (@ 1 μM) lay in the range of 30 to 70%.

`Nc1nnc(-c2ccccc2O)cc1N1CCC2(CCN(c3ccnc(C#CCN4CC5CC4C5)n3)CC2)C1` [Compound P-187, o-{6-amino-5-[8-(2-{3-(2-azabicyclo[2.1.1]hex-2-yl)-1-propynyl}-4-pyrimidinyl)-2,8-diaza-2-spiro[4.5]decyl]-3-pyridazinyl}phenol]: the DC50 in assay [1] and in assay [2] was 50 to 500 nM throughout. The “SMARCA2 % Degradation @ 1 μM” value in assay [1] (@ 1 μM) is listed as “++ (++=30-70%)”. Also, the inhibition at 1 µM in assay [2] (@ 1 μM) lay within 30 to 70%.

In the case of `C[C@H]1CCN(c2cc(-c3ccccc3O)nnc2N)CCN1c1ccc(C#N)c(C#CCN(C)CC(F)(F)F)n1` [Compound P-415, 2-{3-[N-methyl(2,2,2-trifluoroethyl)amino]-1-propynyl}-6-{(S)-4-[3-amino-6-(o-hydroxyphenyl)-4-pyridazinyl]-7-methyl-1,4-diazepan-1-yl}nicotinonitrile], the DC50 in assay [1] and in assay [2] was 50 to 500 nM in each case. Also, the “SMARCA2 % Degradation @ 1 μM” value in assay [1] (1 μM) is recorded as “++ (++=30-70%)”. This compound also returned an inhibition at 1 µM in assay [2] (1 μM) of 30 to 70%.

Regarding `CC(C)(C)OC(=O)NCC#Cc1nccc(N2CCCN(c3cc(-c4ccccc4O)nnc3N)CCC2)n1` [Compound P-304, 4-(5-{2-[3-(tert-butoxycarbonylamino)-1-propynyl]-4-pyrimidinyl}-1,5-diazocan-1-yl)-6-(o-hydroxyphenyl)-3-pyridazinamine], the DC50 in assay [1] and in assay [2] was 50 to 500 nM each time. Besides, in assay [1] (@ 1 μM), the “SMARCA2 % Degradation @ 1 μM” value is recorded as “+++ (+++=>70%)”.

For the compound `Nc1nnc(-c2ccccc2O)cc1N1CCCN(c2ccnc(C#CCNC3CC3)n2)CC1` [Compound P-301, 0-[6-amino-5-(4-{2-[3-(cyclopropylamino)-1-propynyl]-4-pyrimidinyl}-1,4-diazepan-1-yl)-3-pyridazinyl]phenol], the DC50 in assay [1] was in the range of 50 to 500 nM; in assay [2], 500 to 5000 nM. In addition, the “SMARCA2 % Degradation @ 1 μM” value in assay [1] (@ 1 μM) is recorded as “++ (++=30-70%)”. Moreover, the inhibition at 1 µM in assay [2] (@ 1 μM) was 30 to 70%.

As to `C[C@@H]1CCN(c2cc(-c3ccccc3O)nnc2N)CCN1c1nc(C#CCN2CC3CC2C3)ncc1F` [Compound P-189, o-{5-[(R)-4-(2-{3-(2-azabicyclo[2.1.1]hex-2-yl)-1-propynyl}-5-fluoro-4-pyrimidinyl)-5-methyl-1,4-diazepan-1-yl]-6-amino-3-pyridazinyl}phenol], the DC50 in assay [1] and in assay [2] was < 50 nM in each case. Further, the “SMARCA2 % Degradation @ 1 μM” value in assay [1] (@ 1 μM) is “++ (++=30-70%)”. Further, the inhibition at 1 µM in assay [2] (@ 1 μM) lay within 30 to 70%.

As to `C[C@@H]1CCN(c2cc(-c3ccccc3O)nnc2N)CCN1c1ccnc(C#CCN2[C@H](C)COC[C@@H]2C)c1` [Compound P-422, 0-{5-[(R)-4-(2-{3-[(3R,5S)-3,5-dimethyl-4-morpholiny1]-1-propynyl}-4-pyridyl)-5-methyl-1,4-diazepan-1-yl]-6-amino-3-pyridazinyl}phenol], the DC50 in assay [1] was 50 to 500 nM; in assay [2], < 50 nM. For the same compound, the “SMARCA2 % Degradation @ 1 μM” value in assay [1] (1 μM) is on record as “+ (+=<30%)”.

In the case of `CC(C)(C)OC(=O)N1Cc2cn(CC#Cc3nccc(N4CCCN(c5cc(-c6ccccc6O)nnc5N)CC4)n3)nc2C1` [Compound P-105, tert-butyl 2-(3-(4-(4-(3-amino-6-(2-hydroxyphenyl)pyridazin-4-yl)-1,4-diazepan-1-yl)pyrimidin-2-yl)prop-2-yn-1-yl)-2,6-dihydropyrrolo[3,4-c]pyrazole-5(4H)-carboxylate], the results for the DC50 in assay [1] and in assay [2] were 50 to 500 nM and < 50 nM, respectively. For the same compound, the “SMARCA2 % Degradation @ 1 μM” value in assay [1] (@ 1 μM) is “+++ (+++=>70%)”. Further, the inhibition at 1 µM in assay [2] (@ 1 μM) is > 70%.

As for `Nc1nnc(-c2ccccc2O)cc1N1CCN(c2ccnc(C#CCNC(=O)c3cc4ccccc4[nH]3)n2)CC1` [Compound P-73, N-(3-(4-(4-(3-amino-6-(2-hydroxyphenyl)pyridazin-4-yl)piperazin-1-yl)pyrimidin-2-yl)prop-2-yn-1-yl)-1H-indole-2-carboxamide], the DC50 in assay [1] and in assay [2] was 50 to 500 nM throughout. Further, the “SMARCA2 % Degradation @ 1 μM” value in assay [1] (@ 1 μM) was “++ (++=30-70%)”. In assay [2] (@ 1 μM), this compound came in with an inhibition at 1 µM of 30 to 70%.

As for `C[C@@H]1CCN(c2cc(-c3ccccc3O)nnc2N)CCN1c1ccc(C(F)(F)F)c(C#CCN(C)C)n1` [Compound P-395, 0-{5-[(R)-4-{6-[3-(dimethylamino)-1-propynyl]-5-(trifluoromcthyl)-2-pyridyl}-5-methyl-1,4-diazepan-1-yl]-6-amino-3-pyridazinyl}phenol], the DC50 in assay [1] is 500 to 5000 nM; in assay [2] it was > 5000 nM.

In the case of `NCC#Cc1nccc(N2C3CC2CN(c2cc(-c4ccccc4O)nnc2N)C3)n1` [Compound P-91, 2-(6-amino-5-(6-(2-(3-aminoprop-1-yn-1-yl)pyrimidin-4-yl)-3,6-diazabicyclo[3.1.1]heptan-3-yl)pyridazin-3-yl)phenol], the DC50 in assay [1] and in assay [2] was 500 to 5000 nM each time. The “SMARCA2 % Degradation @ 1 μM” value in assay [1] (@ 1 μM) was “+ (+=<30%)”. Also, in assay [2] (@ 1 μM), the inhibition at 1 µM is < 30%.

Turning to `Nc1nnc(-c2ccccc2O)cc1N1CCCN(c2ccnc(C#CCN3CCN(C(=O)C4CC4)CC3)n2)CC1` [Compound P-365, {4-[3-(4-{4-[3-amino-6-(o-hydroxyphenyl)-4-pyridaziny1]-1,4-diazepan-1-yl}-2-pyrimidinyl)-2-propynyl]-1-piperazinyl}cyclopropylmethanone], the DC50 in assay [1] and in assay [2] was 500 to 5000 nM each time. Besides, in assay [1] (@ 1 μM), the “SMARCA2 % Degradation @ 1 μM” value is “++ (++=30-70%)”. In assay [2] (@ 1 μM), this compound came in with an inhibition at 1 µM of 30 to 70%.

`Cn1cnc(C(=O)NCC#Cc2nccc(N3CCN(c4cc(-c5ccccc5O)nnc4N)CC3)n2)c1` [Compound P-67, N-(3-(4-(4-(3-amino-6-(2-hydroxyphenyl)pyridazin-4-yl)piperazin-1-yl)pyrimidin-2-yl)prop-2-yn-1-yl)-1-methyl-1H-imidazole-4-carboxamide]: the DC50 in assay [1] and in assay [2] was 50 to 500 nM in each case. Further, the “SMARCA2 % Degradation @ 1 μM” value in assay [1] (@ 1 μM) is on record as “+ (+=<30%)”. The inhibition at 1 µM in assay [2] (@ 1 μM) was < 30%.

For `Nc1nnc(-c2ccccc2O)cc1N1CCC2(CCN(c3ccnc(C#CCn4ccnc4)n3)CC2)C1` [Compound P-253, o-[6-amino-5-(8-{2-[3-(1-imidazolyl)-1-propynyl]-4-pyrimidinyl}-2,8-diaza-2-spiro [4.5]decyl)-3-pyridazinyl]phenol], the DC50 in assay [1] and in assay [2] was 50 to 500 nM throughout. In assay [1] (@ 1 μM), the “SMARCA2 % Degradation @ 1 μM” value is “++ (++=30-70%)”. In assay [2] (@ 1 μM), this compound registered an inhibition at 1 µM of 30 to 70%.

Consider `C[C@@H]1CCN(c2cc(-c3ccccc3O)nnc2N)CCN1c1ccnc(/C=C/CN2CCC2)n1` [Compound P-166, o-{5-[(R)-4-{2-[3-(1-azetidinyl)-1-propenyl]-4-pyrimidinyl}-5-methyl-1,4-diazepan-1-yl]-6-amino-3-pyridazinyl}phenol], for which the half-maximal degradation concentration (DC50) in assay [1] and in assay [2] was 50 to 500 nM each time. Further, the “SMARCA2 % Degradation @ 1 μM” value in assay [1] (@ 1 μM) was “+++ (+++=>70%)”. For the same compound, in assay [2] (@ 1 μM), the inhibition at 1 µM is > 70%.

As to `CC(C#Cc1ncc(F)c(N2CCN(c3cc(-c4ccccc4O)nnc3N)CC[C@H]2C)n1)N(C)C` (stereo partly shown) [Compound P-208], the DC50 in assay [1] and in assay [2] was 50 to 500 nM in each case. In assay [1] (@ 1 μM), the “SMARCA2 % Degradation @ 1 μM” value is given as “++ (++=30-70%)”. Moreover, the inhibition at 1 µM in assay [2] (@ 1 μM) was < 30%.

On to `Nc1nnc(-c2ccccc2O)cc1N1CCCN(c2ccnc(C#CCN[C@H]3CCOC3)n2)CC1` [Compound P-275, 0-{5-[4-(2-{3-[(S)-tetrahydro-3-furylamino]-1-propynyl}-4-pyrimidinyl)-1,4-diazepan-1-yl]-6-amino-3-pyridaziny1}phenol], for which the DC50 in assay [1] and in assay [2] was 50 to 500 nM in each case. Also, the “SMARCA2 % Degradation @ 1 μM” value in assay [1] (@ 1 μM) is recorded as “+++ (+++=>70%)”. The inhibition at 1 µM in assay [2] (@ 1 μM) lay in the range of 30 to 70%.

The DC50 is the midpoint of the concentration-degradation curve. What is called inhibition is the drop in the measured response relative to a control, in per cent.
